The values below come from patent publication US20240425478A1, “CYCLOPENTYLPYRAZOLE CDK2 INHIBITORS” (Genentech, Inc., priority 2021, published 2024).

The target of experiment [1] is T1, Cyclin Dependent Kinase 2/Cyclin E1 (CDK2-cycE1) (Homo sapiens, UniProt P24941).
T1 construct: purchased ProQinase 0050-0055-1
As to the kind of experiment: CDK2-cycE1 TR-FRET (LANCE) enzyme assay. The note with it: Table O; for Ki: enzymatic assay, read-out: CDK2 Ki; for FS CDK1/CDK2 / FS CDK4/CDK2: fold selectivity; for FS CDK1/CDK2: enzymatic CDK1 Ki over CDK2 Ki; for FS CDK4/CDK2: enzymatic CDK4 Ki over CDK2 Ki. The format is biochemical. Summed up:
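Compound dose responses pre-incubated 30 min with CDK2-cycE1 in 50 mM HEPES pH 7.5, 10 mM MgCl2, 2 mM TCEP, 0.05% BGG, 0.01% Brij 35. Reaction quenched with EDTA (15 mM final), phospho-MBP detected by Eu-anti-phospho-MBP TR-FRET (acceptor/donor ratio). Inhibition constants from Morrison equation.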
For orientation: In TR-FRET formats the signal depends on donor and acceptor labels being close together.

Experiment [2] has as its system OVISE (JCRB1043, CCNE1-amplified). The experiment is described as follows: OVISE EdU incorporation cell proliferation assay (CDK2-dependent). The format is cell-based. The note with it: for IC50: read-out: CDK2 OVISE IC50; for FS SKOV-3/OVISE / FS p-H3/OVISE: fold selectivity; for FS SKOV-3/OVISE: cellular SKOV-3 IC50 over OVISE IC50; for FS p-H3/OVISE: cellular p-H3 IC50 over OVISE IC50. Summed up: (§1)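 Cells in RPMI/10% FBS dosed with compound (0.5% DMSO final) for 16 h at 37 °C, 5% CO2, then EdU 0.5 μM final for 8 h before fixation and imaging. IC50 from 4-parameter logistic fit of EdU-positive cell fraction versus dose.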

Experiment [3] deals with T2, Cyclin Dependent Kinase 4/Cyclin D3 (CDK4-cycD3) (Homo sapiens, UniProt P11802).
T2 construct: purchased Carna Biosciences 04-105
The experiment is described as follows: CDK4-cycD3 TR-FRET (LANCE) enzyme assay. The format is biochemical. Conditions: Table O, enzymatic assay. In short, it runs like this: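 Compound dose responses pre-incubated 30 min with enzyme mix in 50 mM HEPES pH 7.5, 10 mM MgCl2, 2 mM TCEP, 0.05% BGG, 0.01% Brij 35. Reaction quenched with EDTA (15 mM final); Eu-anti-phospho-4E-BP1 TR-FRET detection, acceptor/donor ratio. Ki derived by Morrison equation.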

Experiment [4] addresses T3, Cyclin Dependent Kinase 1/Cyclin A2 (CDK1-cycA2) (Homo sapiens, UniProt P06493).
T3 construct: purchased ProQinase 0134-0054-1
The experiment is described as follows: CDK1-cycA2 TR-FRET (Lance) enzyme assay. Conditions: Table O, enzymatic assay. The format is biochemical. Summed up:
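Human CDK1/cyclin A2 pre-incubated 30 min with compound dose responses in 50 mM HEPES pH 7.5, 10 mM MgCl2, 2 mM TCEP, 0.05% BGG, 0.01% Brij 35. Reaction quenched with EDTA (15 mM final); TR-FRET readout using Eu-anti-phospho-4E-BP1, acceptor/donor ratio. Inhibition constants from Morrison equation.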

The test system of another experiment is SKOV-3 (ATCC HTB-77). The experiment is described as follows: SKOV-3 EdU incorporation cell proliferation assay (CDK4/6-dependent). The format is cell-based. Conditions: Homo sapiens. In short, it runs like this:
as §1

The subject of a further experiment is HCT116 cells. As to the kind of experiment: p-H3 HCT-116 mitotic release cell proliferation assay (cellular CDK1). It is filed as cell-based. The note with it: Homo sapiens. In short, it runs like this: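 HCT116 cells arrested 16 h with 500 nM nocodazole, then exposed to compound for 4 h at 37 °C (0.1% DMSO). Lysates read by HTRF/FRET with donor and acceptor phospho-Histone H3 (Ser10) antibodies, ≥2 h at room temperature; CDK1 inhibition seen as loss of p-H3 on mitotic release.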

Setting [5] is: SK-OV-3, Table O, cellular assay, read-out: CDK4/6 SKOV-3 IC50.
The mark [6] stands for this setting: HCT-116, Table O, cellular assay, read-out: CDK1 p-H3 IC50.

Read-outs that look alike come from different tables or passages of the source.

T2 sequence (P11802 whole entry): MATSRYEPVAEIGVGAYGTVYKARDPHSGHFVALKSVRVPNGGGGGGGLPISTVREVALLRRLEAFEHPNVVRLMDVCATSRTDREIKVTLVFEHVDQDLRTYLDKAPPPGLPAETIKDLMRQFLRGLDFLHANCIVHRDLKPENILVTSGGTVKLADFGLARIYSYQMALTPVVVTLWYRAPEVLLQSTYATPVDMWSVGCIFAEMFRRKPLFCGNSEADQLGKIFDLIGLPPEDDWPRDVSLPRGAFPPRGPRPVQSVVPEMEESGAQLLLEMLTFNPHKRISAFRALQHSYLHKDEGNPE
T2 sequence (P30281 whole entry partner): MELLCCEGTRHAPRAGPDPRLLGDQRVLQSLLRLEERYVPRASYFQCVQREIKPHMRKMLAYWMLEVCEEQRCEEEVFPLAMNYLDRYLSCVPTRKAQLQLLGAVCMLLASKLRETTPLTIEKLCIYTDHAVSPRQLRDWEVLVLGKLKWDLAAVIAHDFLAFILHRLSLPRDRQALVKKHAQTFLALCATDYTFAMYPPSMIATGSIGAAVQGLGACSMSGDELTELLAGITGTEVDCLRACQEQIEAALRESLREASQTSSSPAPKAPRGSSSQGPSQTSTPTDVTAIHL
T3 sequence (P06493 whole entry): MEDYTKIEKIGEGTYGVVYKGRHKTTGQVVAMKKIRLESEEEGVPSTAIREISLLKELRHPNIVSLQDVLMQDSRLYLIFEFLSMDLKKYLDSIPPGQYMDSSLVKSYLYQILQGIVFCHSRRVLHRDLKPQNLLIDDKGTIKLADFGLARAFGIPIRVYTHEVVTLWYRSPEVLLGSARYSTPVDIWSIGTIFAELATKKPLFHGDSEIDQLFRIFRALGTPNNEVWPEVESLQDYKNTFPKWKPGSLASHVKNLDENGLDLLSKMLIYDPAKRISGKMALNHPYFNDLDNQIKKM
T3 sequence (P20248 whole entry partner): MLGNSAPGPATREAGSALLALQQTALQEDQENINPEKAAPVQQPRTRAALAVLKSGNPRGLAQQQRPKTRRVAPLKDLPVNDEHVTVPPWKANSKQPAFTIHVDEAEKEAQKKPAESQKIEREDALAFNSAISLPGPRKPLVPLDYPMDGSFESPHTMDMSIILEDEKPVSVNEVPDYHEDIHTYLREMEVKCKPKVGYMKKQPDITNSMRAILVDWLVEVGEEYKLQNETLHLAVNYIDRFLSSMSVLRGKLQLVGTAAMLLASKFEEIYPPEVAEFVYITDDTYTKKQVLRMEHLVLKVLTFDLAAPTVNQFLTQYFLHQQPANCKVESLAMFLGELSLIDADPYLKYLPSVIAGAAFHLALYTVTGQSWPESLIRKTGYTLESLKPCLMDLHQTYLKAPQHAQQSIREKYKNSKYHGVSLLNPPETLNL

Take `CN(C)Cc1ccc(Nc2cc([C@H]3CC[C@@H](OC(=O)NC45CC(C4)C5)C3)[nH]n2)cn1` [Example 9J, (1R,3S)-3-(3-((6-((dimethylamino)methyl)pyridin-3-yl)amino)-1H-pyrazol-5-yl)cyclopentyl bicyclo[1.1.1]pentan-1-ylcarbamate]: the Ki was found to be 1.9 nM in experiment [1], 17 nM in experiment [3] and 64 nM in experiment [4]. In experiment [1], the “FS CDK1/CDK2” value is recorded as 34. Further, the “FS CDK4/CDK2” value in experiment [1] stood at 8.9. For the same molecule, the IC50 in experiment [2] (Table O, cellular assay) was found to be 89 nM; with SKOV-3 (ATCC HTB-77) (setting [5]), 280 nM; in the experiment on HCT116 cells (setting [6]), 39 nM. In experiment [2] (Table O), the “FS SKOV-3/OVISE” value amounted to 3.1. The “FS p-H3/OVISE” value in experiment [2] (Table O) is recorded as 0.44.

As for `O=C(NC12CC(C1)C2)O[C@@H]1CC[C@H](c2cc(Nc3ccc(N4CCOCC4)nc3)n[nH]2)C1` [Example 9K, (1R,3S)-3-(3-((6-morpholinopyridin-3-yl)amino)-1H-pyrazol-5-yl)cyclopentyl bicyclo[1.1.1]pentan-1-ylcarbamate], the Ki turned out to be 5.6 nM in experiment [1], 67 nM in experiment [3] and 41 nM in experiment [4]. In addition, in experiment [1], the “FS CDK1/CDK2” value was found to be 7.3. In experiment [1], the “FS CDK4/CDK2” value is recorded as 12. The IC50 was found to be 190 nM in experiment [2] (Table O, cellular assay); 710 nM with SKOV-3 (ATCC HTB-77) (setting [5]); 49 nM in the experiment with HCT116 cells (setting [6]). Besides, the “FS SKOV-3/OVISE” value in experiment [2] (Table O) worked out at 3.7. In addition, in experiment [2] (Table O), the “FS p-H3/OVISE” value was found to be 0.26.

In the case of `CC(C)(C)NC(=O)O[C@@H]1CC[C@H](c2cc(Nc3ccnc(CO)c3)n[nH]2)C1` [Example 10C, (1R,3S)-3-(3-((2-(hydroxymethyl)pyridin-4-yl)amino)-1H-pyrazol-5-yl)cyclopentyl tert-butylcarbamate], the Ki in experiment [1] was 1.8 nM; in experiment [3] it was 51 nM; in experiment [4] it was 58 nM. In experiment [1], the “FS CDK1/CDK2” value is listed as 32. For the same molecule, the “FS CDK4/CDK2” value in experiment [1] stood at 28. Besides, the IC50 in experiment [2] (Table O, cellular assay) is 130 nM; with SKOV-3 (ATCC HTB-77) (setting [5]), 5700 nM; with HCT116 cells (setting [6]), 180 nM. Moreover, the “FS SKOV-3/OVISE” value in experiment [2] (Table O) came to 44. Further, the “FS p-H3/OVISE” value in experiment [2] (Table O) is on record as 1.4.

As to `Cc1nc(C#N)ccc1Nc1cc([C@H]2CC[C@@H](OC(=O)NC(C)(C)C)C2)[nH]n1` [Example 10D, (1R,3S)-3-(3-((6-cyano-2-methylpyridin-3-yl)amino)-1H-pyrazol-5-yl)cyclopentyl tert-butylcarbamate], the results for the Ki in experiment [1], in experiment [3] and in experiment [4] were 0.44 nM, 86 nM and 59 nM, respectively. Moreover, in experiment [1], the “FS CDK1/CDK2” value was found to be 134. Further, the “FS CDK4/CDK2” value in experiment [1] is 195. The IC50 in experiment [2] (Table O, cellular assay) is 46 nM; in the experiment on SKOV-3 (ATCC HTB-77) (setting [5]), 2800 nM; in the experiment with HCT116 cells (setting [6]), 97 nM. Also, the “FS SKOV-3/OVISE” value in experiment [2] (Table O) is given as 61. Moreover, the “FS p-H3/OVISE” value in experiment [2] (Table O) is given as 2.1.

As for `CC1(NC(=O)O[C@@H]2CC[C@H](c3cc(Nc4ccc(C#N)cn4)n[nH]3)C2)COC1` [Example 10E, (1R,3S)-3-(3-((5-cyanopyridin-2-yl)amino)-1H-pyrazol-5-yl)cyclopentyl (3-methyloxetan-3-yl)carbamate], the values for the Ki in experiment [1], in experiment [3] and in experiment [4] were 0.78 nM, 64 nM and 25 nM, respectively. Besides, in experiment [1], the “FS CDK1/CDK2” value was determined as 32. In addition, the “FS CDK4/CDK2” value in experiment [1] amounted to 82. Further, the “FS SKOV-3/OVISE” value in experiment [2] (Table O) stood at 20. Also, the “FS p-H3/OVISE” value in experiment [2] (Table O) is listed as 1.1. Moreover, the IC50 in experiment [2] is 110 nM; in the experiment on SKOV-3 (ATCC HTB-77) (SK-OV-3, read-out: CDK4/6 SKOV-3 IC50) it was 2200 nM; with HCT116 cells (HCT-116, read-out: CDK1 p-H3 IC50), 120 nM.

With `Cc1nnccc1Nc1cc([C@H]2CC[C@@H](OC(=O)NC(C)(C)C)C2)[nH]n1` [Example 11A, (1R,3S)-3-(3-((3-methylpyridazin-4-yl)amino)-1H-pyrazol-5-yl)cyclopentyl tert-butylcarbamate], the Ki in experiment [1] was determined as 0.63 nM; in experiment [3], 280 nM; in experiment [4], 83 nM. Also, the “FS CDK1/CDK2” value in experiment [1] is given as 132. The “FS CDK4/CDK2” value in experiment [1] worked out at 444. The IC50 was determined as 120 nM in experiment [2] (Table O, cellular assay); 12000 nM in the experiment with SKOV-3 (ATCC HTB-77) (setting [5]); 230 nM with HCT116 cells (setting [6]). Also, in experiment [2] (Table O), the “FS SKOV-3/OVISE” value is listed as 100. The “FS p-H3/OVISE” value in experiment [2] (Table O) is on record as 1.9.

One may read the Ki as the dissociation constant of the complex between target and ligand, obtained from inhibition or displacement.
